Results: patent US4073786A, “2-Amino-4-hydroxy-6-hydroxymethyl-7,7-diethyl-7,8-dihydropteridine and the 7-spirocyclohexyl analogue thereof” (Burroughs Wellcome Co., priority 1975, dated 1978)

Tests used:
[1] = tested on: Cl. perfringens; conditions: British Pat. No. 1303171 and Application No. 36289/70; cited from earlier work
[2] = tested on: Derm. dermatonomous; conditions: British Pat. No. 1303171 and Application No. 36289/70; cited from earlier work
[3] = target: hydroxymethyldihydropteridine pyrophosphokinase (HMPPS) (Escherichia coli, UniProt P26281); assay: Inhibition of the enzymes forming dihydropteroic acid (HMPPS ATP-γ-P32 transfer assay; synthetase pAB-C14 assay); type: biochemical; conditions: E. coli extract enzymes; result of tests (a) HMPPS and (b) synthetase
Experimental: The inhibiting activity against HMPPS of a selected compound of formula (I) can, for instance, be tested by monitoring the transfer of the terminal phosphate of adenosinetriphosphate/ATP-γ-P^32 to `dihydropteridine`. […] Such inhibition may, for instance, be easily and simply carried out by incubating an extract of E. coli with pAB-7-C^14, ATP, Mg and `dihydropteridine`. The formation of the dihydropteroate-C^14 can be quantitatively assayed after separating the unreacted pAB substrate, for instance by chromatography. […] Preferably the value is 25μM or less, such as in the range between 2 to 12μM. Generally a value below 7μM is desirable. […]
(a) An assay for HMPPS was developed in which the transfer of the terminal phosphate of ATP-γ-P^32 to Pt could be monitored and correlated with the amount of inhibition of HMPPS by the compound under test. […]
Tubes 1 to 9 containing the amounts of components shown in the Table, were filled up to 200μl with distilled water, incubated for 60 minutes at 37° C and then chilled on ice. […] The charcoal and the filter were then radioactively counted. […]
(b) The activity of the test compound of formula (I) against `synthetase` was determined as follows, by monitoring the formation of dihydropteroate C^14. […]

[4] = tested on: Staphylococcus aureus; assay: Inhibitor zone test, pteridine in agar with TMP and/or SMX in the well; type: cell-based; conditions: conclusion from Table 3
Experimental: The pteridine was included in a soya peptone medium of low thymidine content (Wellcotest Sensitivity test agar) contained in a Petri dish and the other component(s) added to the well resulting from the removal of a small plug from the medium. The surface of the medium was inoculated with the test organism and then incubated. The amount of zone inhibition is shown in Table 3, wherein the numbers represent the complete zone inhibition (i.e. the number of […] from the edge of the well after about 6 × magnification) and the figures in parenthesis include the zones of partial inhibition.

hydroxymethyldihydropteridine pyrophosphokinase (HMPPS), sequence (P26281 whole entry): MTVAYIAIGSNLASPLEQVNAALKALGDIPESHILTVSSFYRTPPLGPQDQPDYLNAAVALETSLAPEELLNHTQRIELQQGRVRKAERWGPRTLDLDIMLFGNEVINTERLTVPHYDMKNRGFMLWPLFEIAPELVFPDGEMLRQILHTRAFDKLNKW

In the case of CC1=Nc2c(nc(N)[nH]c2=O)NC1(C)C [2-amino-4-hyroxy-6-methyl-7,7-dimethyl-7,8-dihydropteridine], the bacteriostatic activity [1] is listed as “particularly effective” and the bacteriostatic activity [2] is listed as “particularly effective”.

In the case of CC1(C)Nc2nc(N)nc(O)c2N=C1CO [2-amino-4-hydroxy-6-hydroxymethyl-7,7-dimethyl-7,8-dihydropteridine], the bacteriostatic activity [1] is listed as “particularly effective” and the bacteriostatic activity [2] is listed as “particularly effective”.

For CCC1(CC)Nc2nc(N)nc(O)c2N=C1CO [R=CH2 OH R^1 =R^2 =Et, 2-amino-4-hydroxy-6-hydroxymethyl-7,7-diethyl-7,8-dihydropteridine], the IC50 [3] was 2100 nM and the “synergistic activity with TMP and/or SMX” value [4] was “synergism with TMP and SMX alone and multiple synergism with both”.
